The values that follow come from patent US20240189244A1 (priority 2021, published 2024).

SMILES strings stand for the structures. Where a name gives a salt, the structure may show the parent alone.

For series [1], the system named is renal proximal tubule cells (RPTCs). In kind it is cell-based, New Zealand white rabbits. The following applies: for effect of inhibitor pretreatment on DEDC(NP) uptake by RPTCs: then 0.1 mg/mL DEDC(NP)s 2 h. How it is done:
To assess uptake of DEDC(NP)s, RPTCs were grown in 35-mm tissue culture dishes as described above. DEDC(NP) dispersions were prepared by diluting nanoparticles into media and vortexed immediately prior to experiments. Cells were preincubated for 30 min with varying concentrations of either media or the drugs chlorpromazine hydrochloride (Sigma-Aldrich), nocodazole (Sigma-Aldrich), or simvastatin (Sigma-Aldrich). After pre-incubation, DEDC(NP)s were added at a final concentration of 0.1 mg/mL and incubated for 2 h at 37° C. Cells were washed in triplicate with media to ensure removal of nanoparticles adhered to the outer cell membrane. Cells were then fixed in 10% neutral buffered formalin and nuclei stained with 4′,6-diamidino-2-phenylindole (DAPI). Cells were imaged using the EVOS M5000 Imaging System (ThermoFisher, Waltham, MA) and fluorescence intensity was analyzed by ImageJ (NIH) (n=5 biological replicates).

In series [2] the test system is PGC-1α, ND1, NDUFS1 in left ventricle. Description: Immunoblot of mitochondrial biogenesis markers in left ventricle of naive mice. The following applies: 24 hours; formoterol 0.3 mg/kg or nanoparticles 0.04 mg/kg formoterol i.v.; vs control. As for the experimental part:
(§1) Male C57BL/6 mice were obtained from Charles River (Oakwood, MI) and housed in a room at a constant temperature of 22+2° C. with 12:12 hour light-dark cycles. […] At 24 hours post exposure, mice were euthanized and kidney and heart were harvested. All experiments were approved by The University of Arizona in accordance with the guidelines set forth by the National Institutes of Health Guide for the Care and Use of Laboratory Animals.

The subject of the next series is C57BL/6 mice. Description: Tail cuff heart rate and blood pressure, naive mice. The following applies: 1-2 hours after 0.3 mg/kg formoterol. How it is done:
as §1
The blood pressure and heart rates were measured with a non-invasive tail cuff device (CODA8, Kent Scientific, CT) which uses a volume-pressure method as previously described (Wang Y, Thatcher S E, Cassis L A. Measuring Blood Pressure Using a Noninvasive Tail Cuff Method in Mice. Methods Mol Biol. 2017; 1614:69-73). All measurements were performed on restrained, conscious animals located on a heating pad following the manufacturers protocol. […] At least 10 valid measurements were taken per animal.

The next series in a line: physchem. The following applies: for solubility at 24 h: 25 °C, thermodynamic from solid. As for the experimental part:
For variable pH samples, solution pH was adjusted with either hydrochloric acid or sodium hydroxide solutions (1 M Sigma-Aldrich, St. Louis, MO). Vials were rotated gently for 24 hours at 25° C. as previously described (Aodah A, Pavlik A, Karlage K, Myrdal P B. Preformulation Studies on Piperlongumine. PLOS One. 2016; 11(3):e0151707). Test solutions were filtered using 0.45 μm PVDF or PTFE membrane filters (MilliporeSigma, Burlington, MA) for aqueous and organic solvents respectively.

Series [3] concerns KIM-1, PGC-1α, ETC proteins, tight junction proteins in renal cortex. The series can be described thus: I/R AKI: renal cortex proteins by immunoblot and KIM-1 immunohistochemistry. In kind it is in vivo, C57Bl/6 mice. The following applies: 144 hours, daily treatment. As for the experimental part: (§2) Mice were subjected to bilateral renal ischemia for 18-20 minutes or sham surgery as previously described (Funk J A, Schnellmann R G. Persistent disruption of mitochondrial homeostasis after acute kidney injury. Am J Physiol Renal Physiol 2012; 302: F853-864). Mice were allowed to recover without intervention for 24 hours and sorted into groups based on 24-hour serum creatinine levels prior to initiation of dosing. Mice were dosed either daily or at a reduced frequency at 24 hours and 96 hours post-injury (2-day dosing). […] Mice were given VS and FFD via intraperitoneal injection.

In a further series the test system is I/R injured mice. The series can be described thus: I/R AKI: cardiovascular function by tail cuff. The following applies: 1-2 hours following administration. As for the experimental part: as §2
Mouse blood pressure and heart rates were measured with a non-invasive tail cuff device (CODA8, Kent Scientific, CT) as previously described (Wang Y, Thatcher S E, Cassis L A. Measuring Blood Pressure Using a Noninvasive Tail Cuff Method in Mice. Methods Mol Biol 2017; 1614: 69-73). All measurements were performed on restrained, conscious animals located on a heating pad following the manufacturer's protocol. […] At least 10 valid measurements were taken per animal.

Another series relates to BTBR WT and ob/ob mice. The series can be described thus: Diabetic mice: cardiovascular fibrosis, heart weight and survival. As for the experimental part:
The efficacy of nanoparticle therapy was determined using BTBR wild type and obese diabetic mice (BTBR T^+ Itpr3^tf/J (WT) and BTBR.Cg-Lep^ob/WiscJ (ob/ob)) (The Jackson Laboratory, Bar Harbor, ME). […] Mice in the vehicle saline groups, Veh(Sal), received daily intraperitoneal injections of normal saline. Immediately following study initiation, 8 mice from both WT and ob/ob Veh(Sal) were euthanized and kidneys extracted for histological analysis. Remaining mice (n=8 per group) were treated for 8 weeks. Following the final week of treatment, mice were sacrificed and kidneys were perfused with normal saline with heparin (10 U/mL). Serum, kidneys and heart were collected for protein and histological analysis.
Cardiovascular fibrosis was measured by quantification of the fraction of trichrome-positive area in both interstitial and perivascular sections of the right ventricular wall. At least 15 sections were quantified per animal. All quantification was completed by an analyst blinded to treatment group.

Series [4] concerns renal proximal tubule cells (RPTCs). The following applies: up to a concentration of 1000 nM, previous studies; cited from earlier work.
The test system of a further series is Wistar rats. The following applies: cited from earlier work.
The test system of series [5] is renal proximal tubule cells (RPTCs). The series can be described thus: Cell viability by resazurin reduction assay. The following applies: formoterol 1-1000 nM, 24 hours.
Procedure: The RPTCs were cultured on 35-mm tissue culture dishes with 1:1 DMEM:F-12 (without glucose, phenol red, or sodium pyruvate) as media supplemented with 15 mM HEPES buffer, 2.5 mM L-glutamine, 1 μM pyridoxine HCL, 15 mM sodium bicarbonate, and 6 mM lactate. Daily, hydrocortisone (50 nM), selenium (5 ng/mL), human transferrin (5 μg/mL), bovine insulin (10 nM), and L-ascorbic acid-2-phosphate (50 μM) were added to fresh culture medium. Confluent cells were used for all experiments.
Cultured RPTCs were grown on 96-well plates at a cell density of 5×10^3 cells/well for 96 h. […] The treatments were each prepared by dissolving or suspending the powders in culture media. […] Viability was assessed (n=6 technical replicates per biological replicate) by resazurin reduction assay as described previously (41). Detection was assessed using Synergy H1 Multi-Mode Reader (BioTek Instruments, Inc., Winooski, VT) with 544 nm excitation and 590 nm emission wavelengths. The relative viability of the cells was calculated as follows: […]
Detection was measured using Synergy H1 Multi-Mode Reader (BioTek Instruments, Inc., Winooski, VT) with 544 nm excitation and 590 nm emission wavelengths. Five biological replicates were used and viability of the cells was calculated as follows:
For series [6], the system named is NDUFB8, SDHB, UQCRC2, ATP5A in renal cortex. Description: Nanoparticle dose selection: renal cortical ETC proteins after 1 week of dosing. The following applies: BTBR WT mice.
Procedure: The FFD(NP) dosage and frequency was determined using BTBR wild type mice (BTBR T^+ Itpr3^tf/J) (The Jackson Laboratory, Bar Harbor, ME). […] The Veh(Sal) group was given intraperitoneal injections of normal saline daily. The Veh(NP) group was given 60 mg/kg nanoparticles injected via lateral tail vein 2× per week. […] After eight days, mice were weighed, euthanized and kidneys were extracted and snap-frozen in liquid nitrogen.
Protein was extracted from renal cortical tissue using radioimmunoprecipitation assay (RIPA) buffer (50 mM Tris-HCl, 150 mM NaCl, 0.1% SDS, 0.5% sodium deoxycholate and 1% Triton X-100, pH 7.4) with protease inhibitor cocktail (1:100), 1 mM sodium fluoride, and 1 mM sodium orthovanadate (Sigma Aldrich). Equal protein quantities (10 μg) were loaded onto 4-15% SDS-PAGE gels, resolved by gel electrophoresis, and then transferred onto nitrocellulose membranes. Membranes were blocked in 5% milk in tris-buffered saline/tween 20, incubated at a temperature of 4° C. for 18-24 h with primary and secondary antibodies (Abcam). Bound antibodies were visualized using enhanced chemiluminescence (Thermo Scientific, Waltham, MA) and the GE ImageQuant LAS400 Biomolecular Imaging System (GE Healthcare, Marlborough, MA).
Where [7] appears, read: ventricular wall, 8 weeks of treatment.

As to `CCN1C(=CC=CC=Cc2sc3ccccc3[n+]2CC)Sc2ccccc21.[I-]` [DEDC, 3,3′-diethylthiadicarbocyanine iodide], the “intracellular fluorescence in RPTCs (uptake)” value in series [1] (0.1 mg/mL DEDC(NP)s or equivalent free dye, 2 h) is recorded as “minimal”.
As to `CN(C)CCCN1c2ccccc2Sc2ccc(Cl)cc21` [chlorpromazine, chlorpromazine hydrochloride], in series [1] (30 min preincubation), the “effect of inhibitor pretreatment on DEDC(NP) uptake by RPTCs” value is reported as “no observable decline in uptake”.
On to `COc1ccc(CC(C)NCC(O)c2ccc(O)c(NC=O)c2)cc1` (centres unmarked) [formoterol, Formoterol fumarate dihydrate], for which, in [2], the “protein expression of mitochondrial biogenesis markers in left ventricle” value is “Elevated protein expression was significant”. In the series on C57BL/6 mice, the “decrease in diastolic blood pressure” value is 19 mmHg, the “decrease in mean arterial pressure (MAP)” value worked out at 16 mmHg, the “heart rate elevation above the vehicle group” value came out at 198 bpm and the “heart rate increase vs vehicle” value is 65%. The solubility at 24 h in the series “physchem” (organic solvent or mixture, Formoterol Solubility, ACN) was determined as 5 ± 1 µg/mL. Further, in “physchem” (organic solvent or mixture, Formoterol Solubility, Acetone), the solubility at 24 h amounted to 63 ± 4 µg/mL. The solubility at 24 h in the series “physchem” (organic solvent or mixture, Formoterol Solubility, Chloroform) came out at 2 ± 1 µg/mL. The solubility at 24 h in “physchem” (organic solvent or mixture, Formoterol Solubility, DCM) amounted to 1 ± 0.4 µg/mL. In the series “physchem” (water, water solubility), this compound yielded a solubility at 24 h of 1160 ± 20 µg/mL. Also, in “physchem” (Acetone, fumarate dihydrate), the “Formoterol Solubility” value worked out at 51 ± 4 µg/mL. Besides, the “solubility in non-ionic surfactant solutions” value in “physchem” (PVA and Pluronic F127, 0.1% to 5% in aqueous solution) is recorded as “remains unchanged”. Besides, in the series “physchem” (ethanol and methanol volume fraction), the “solubility in water:alcohol mixtures” value is “increased with increasing volume fraction”. Further, the “solubility in water at various pH” value in the series “physchem” (pH adjusted with HCl or NaOH) was “increasing solubility in highly basic or acidic conditions”. Further, in series [3], the claudin-5 expression is recorded as 50 % of sham. Further, in the series on I/R injured mice, the “decrease in mean arterial pressure (MAP)” value is given as 18% and the “heart rate increase from VS” value came to 1.5 fold. In addition, the “focal myocardial fibrosis / collagen accumulation” value with BTBR WT and ob/ob mice (8 weeks of treatment) was “significant focal”. The “probability of survival to 12 weeks of age” value with BTBR WT and ob/ob mice (BTBR WT mice) stood at 38%. For the same compound, the “heart weight normalized to respective Veh(Sal) controls” value in the series with BTBR WT and ob/ob mice (BTBR WT or BTBR ob/ob) worked out at 1.3 fold. Besides, the “probability of surviving to 12 weeks of age” value in the series on BTBR WT and ob/ob mice (BTBR ob/ob mice) was determined as 13%. For the same compound, in the series with BTBR WT and ob/ob mice (setting [7]), the “diffuse interstitial trichrome positive area elevation” value was 1.6 fold and the “perivascular trichrome positive area elevation” value was 3.7 fold. Besides, in series [4], the “toxicity to RPTCs” value is given as “non-toxic”. Besides, in the series with Wistar rats (immediately following systemic dosing), the “increase in heart rate from baseline” value is 100-150 bpm. Further, in the series with Wistar rats (intravenous administration, similar doses), the “mean arterial pressure (MAP)” value is given as “significant decrease in mean arterial pressure”. Further, in the series on Wistar rats (rat, in vivo), the “lowest dose at which heart rate effect was seen” value is 3 µg/kg and the “persistence of heart rate increase” value is recorded as “up to 4 hours”. Also, in [5], the “viability of proximal tubule cells” value is “not significantly decreased”. The weight gain result in series [6] is “no differences in weight gain amongst groups”.
`COC(=O)Nc1nc2ccc(C(=O)c3cccs3)cc2[nH]1` [nocodazole]: the “effect of inhibitor pretreatment on DEDC(NP) uptake by RPTCs” value in [1] (30 min preincubation) was “no observable decline in uptake”.
Turning to `CCC(C)(C)C(=O)O[C@H]1C[C@@H](C)C=C2C=C[C@H](C)[C@H](CC[C@@H]3C[C@@H](O)CC(=O)O3)[C@H]21` [simvastatin], in series [1] (30 min preincubation), the “inhibitor concentration at which decrease in nanoparticle uptake starts” value was determined as 1 µM and the “inhibitor concentration giving complete reduction in intracellular fluorescence intensity” value amounted to 100 µM.
